Experimental data reported in PMC2788676 (Journal of medicinal chemistry, 2009).

Columns and labels:
μ-opioid receptor = conditions: read-out: μ-opioid receptor Ki; cited from earlier work
human μ-opiate receptor = human μ-opiate receptor (Homo sapiens, UniProt P35372); experiment: [35S]GTP-γ-S functional binding assay, CHO hMOR cells; type: biochemical; conditions: for Emax: read-out: μ-Agonism Emax %; for efficacy as μ-agonist (in words): [35S]GTP-γ-S functional assay
δ-opiate receptor = δ-opiate receptor (Homo sapiens, UniProt P41143); experiment: [3H]DADLE opioid receptor binding, transfected CHO cells; conditions: relative to μ Ki
Sequence of δ-opiate receptor (P41143 whole entry): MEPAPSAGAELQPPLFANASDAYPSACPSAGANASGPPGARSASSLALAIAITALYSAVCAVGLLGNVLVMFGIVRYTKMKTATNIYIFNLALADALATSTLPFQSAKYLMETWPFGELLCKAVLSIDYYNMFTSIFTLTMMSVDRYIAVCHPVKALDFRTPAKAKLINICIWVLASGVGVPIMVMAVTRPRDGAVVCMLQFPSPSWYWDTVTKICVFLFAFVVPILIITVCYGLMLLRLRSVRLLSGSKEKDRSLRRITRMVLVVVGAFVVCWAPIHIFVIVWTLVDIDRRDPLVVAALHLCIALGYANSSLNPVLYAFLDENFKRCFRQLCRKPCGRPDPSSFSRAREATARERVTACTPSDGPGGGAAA

κ-opiate receptor = κ-opiate receptor (Homo sapiens, UniProt P41145); experiment: [3H]U69,593 opioid receptor binding, transfected CHO cells; conditions: relative to μ Ki
Sequence of κ-opiate receptor (P41145 whole entry): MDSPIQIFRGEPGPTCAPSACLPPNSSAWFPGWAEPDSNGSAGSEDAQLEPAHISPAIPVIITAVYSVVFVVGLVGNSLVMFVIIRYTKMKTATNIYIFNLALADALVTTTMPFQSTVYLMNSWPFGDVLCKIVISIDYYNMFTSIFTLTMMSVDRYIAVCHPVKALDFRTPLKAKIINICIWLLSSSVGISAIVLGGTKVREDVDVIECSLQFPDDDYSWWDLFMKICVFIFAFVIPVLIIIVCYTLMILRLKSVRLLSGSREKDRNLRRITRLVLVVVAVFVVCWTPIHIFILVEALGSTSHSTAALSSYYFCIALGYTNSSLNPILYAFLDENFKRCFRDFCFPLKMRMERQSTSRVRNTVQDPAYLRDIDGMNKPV

Sequence of human μ-opiate receptor (P35372 whole entry): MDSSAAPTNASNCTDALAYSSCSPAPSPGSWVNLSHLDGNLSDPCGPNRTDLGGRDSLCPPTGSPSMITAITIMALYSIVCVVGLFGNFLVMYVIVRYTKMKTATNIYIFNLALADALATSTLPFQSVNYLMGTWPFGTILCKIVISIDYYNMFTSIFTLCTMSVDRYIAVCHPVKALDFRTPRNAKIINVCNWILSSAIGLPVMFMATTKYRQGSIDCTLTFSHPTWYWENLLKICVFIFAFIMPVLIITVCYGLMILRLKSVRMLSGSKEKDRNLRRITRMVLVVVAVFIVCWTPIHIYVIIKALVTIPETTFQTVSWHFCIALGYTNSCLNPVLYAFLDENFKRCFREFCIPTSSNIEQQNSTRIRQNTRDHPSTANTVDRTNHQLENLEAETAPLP

Structure (SMILES) | Ki (μ-opioid receptor) [nM] | EC50 (human μ-opiate receptor) [nM] | Kb (human μ-opiate receptor) [nM] | Emax (human μ-opiate receptor) [%] | efficacy as μ-agonist (in words) (human μ-opiate receptor) | fold less affinity at the δ-receptor than at the μ-receptor (δ-opiate receptor) | fold less affinity at the κ-receptor than at the μ-receptor (κ-opiate receptor)
Oc1ccc2c(c1)[C@]13CCC[C@H](C1)NC[C@@H]3O2 (single isomer, unassigned) [para-d isomer, (3R*,6aS*11aR*)-1,3,4,5,6,11a-hexahydro-2H-3,6a-methanobenzofuro[2,3-c]azocin-8-ol] | 1220 | – | – | – | – | – | –
CC[C@@]12CCNC[C@@H]1Oc1ccc(O)cc12 [Compound 20, 4aS,9aR-(−)-cis-4a-Ethyl-1,2,3,4,4a,9a-hexahydrobenzofuro[2,3-c]pyridin-6-ol] | – | 150 ± 25 | 95 | 97 ± 4 | – | – | –
CC[C@@]12CCN(C)C[C@@H]1Oc1ccc(O)cc12 [Compound 21, 4aS,9aR-(−)-cis-4a-Ethyl-2-methyl-1,2,3,4,4a,9a-hexahydrobenzofuro[2,3-c]pyridin-6-ol] | – | 241 ± 47 | – | 45 ± 2 | little efficacy | – | –
CC[C@@]12CCN(CCc3ccccc3)C[C@@H]1Oc1ccc(O)cc12 [Compound 22, 4aS,9aR-(−)-cis-4a-Ethyl-2-(2-phenylethyl)-1,2,3,4,4a,9a-hexahydrobenzofuro[2,3-c]pyridin-6-ol] | – | 24 ± 6 | – | 84 ± 4 | potent agonist | more than 100 fold | more than 100 fold
CC[C@@]12CCN(C[C@@H](O)c3ccccc3)C[C@@H]1Oc1ccc(O)cc12 [Compound 23, 4aS,9aR,2′S-(−)-cis-2-(2′-Hydroxy-2-phenylethyl)-4a-ethyl-1,2,3,4,4a,9a-hexahydrobenzofuro[2,3-c]pyridin-6-ol] | – | 560 ± 60 | – | 100 ± 3 | – | – | –
CC[C@@]12CCN(C[C@H](O)c3ccccc3)C[C@@H]1Oc1ccc(O)cc12 [Compound 24, 4aS,9aR,2′R-(−)-cis-2-(2′-Hydroxy-2-phenylethyl)-4a-ethyl-1,2,3,4,4a,9a-hexahydrobenzofuro[2,3-c]pyridin-6-ol] | – | 480 ± 90 | – | 36 ± 2 | – | – | –
